Source: patent publication US9211310B2, “Use of a Chinese medicine composition in preparing medicaments for treating secondary prevention of myocardial infarction” (TASLY PHARMACEUTICAL GROUP CO., LTD, priority 2010, dated 2015)

Test system: patients after acute myocardial infarction
Assay: Life quality, Seattle Angina Questionnaire (SAQ), same clinical trial
Assay type: in vivo, human
Conditions: 3 months after treatment
Source text: 3508 patients who were in accordance with the diagnostic standards of AMI for 28 days to 2 years and differentiated as Qi deficiency and blood stagnation syndrome by TCM were studied. 0.5 g Chinese medicine composition prepared by the method of EXAMPLE 1 (Coded as QSYQ) was administrated half an hour after meal, 3 times per day.
There were 19 questions in the Seattle angina questionnaire (SAQ), including 5 parts: physical limitation (PL), anginal stability (AS), anginal frequency (AF), treatment satisfaction (TS) and disease perception (DP). After being given necessary explanation by doctors, the questions were answered independently by patients.
They included the overall survival time, angina pectoris score, TCM symptom score and life quality score, where angina pectoris score, TCM symptom score and life quality score were evaluated at randomization, in 1st, 3rd, 6th, 9th, 12th month after treatment and 18th month after follow-up.
All evaluation results of SAQ were described during the period of observation, and Wilcoxon rank sum test was used for inter-group comparison.
The evaluation results in the SAQ were depicted in different observations, and inter-group comparison was tested by Wilcoxon Rank-sum test.

## CC(=O)Oc1ccccc1C(=O)O [Control group, aspirine]
FAS
  SAQ 3rd question: <1 time per week, % of cases: (21.15%)
  SAQ 3rd question: <1 time per week, cases: 368
  SAQ 3rd question: No onset, % of cases: (0.00%)
  SAQ 3rd question: No onset, cases: 0
  SAQ 3rd question: ≧3 times per week, % of cases: (42.13%)
  SAQ 3rd question: ≧3 times per week, cases: 733
  SAQ 3rd question: ≧4 times per day, % of cases: (0.92%)
  SAQ 3rd question: ≧4 times per day, cases: 16
  SAQ Question 1-3: Mildly limited, number of patients: 93
  SAQ Question 1-3: Mildly limited, percent of patients: (5.33%)
  SAQ Question 1-3: Moderately limited, number of patients: 23
  SAQ Question 1-3: Moderately limited, percent of patients: (1.32%)
  SAQ Question 1-3: Not limited, number of patients: 1318
  SAQ Question 1-3: Not limited, percent of patients: (75.57%)
  SAQ Question 1-3: Other reason, number of patients: 9
  SAQ Question 1-3: Other reason, percent of patients: (0.52%)
  SAQ Question 1-3: Severely limited, number of patients: 5
  SAQ Question 1-3: Severely limited, percent of patients: (0.29%)
  SAQ Question 1-3: Slightly limited, number of patients: 296
  SAQ Question 1-3: Slightly limited, percent of patients: (16.97%)
  SAQ Question 1-4: Mildly limited, number of patients: 325
  SAQ Question 1-4: Mildly limited, percent of patients: (18.65%)
  SAQ Question 1-4: Moderately limited, number of patients: 120
  SAQ Question 1-4: Moderately limited, percent of patients: (6.88%)
  SAQ Question 1-4: Not limited, number of patients: 668
  SAQ Question 1-4: Not limited, percent of patients: (38.32%)
  SAQ Question 1-4: Other limited, number of patients: 12
  SAQ Question 1-4: Other limited, percent of patients: (0.69%)
  SAQ Question 1-4: Severely limited, number of patients: 29
  SAQ Question 1-4: Severely limited, percent of patients: (1.66%)
  SAQ Question 1-4: Slightly limited, number of patients: 589
  SAQ Question 1-4: Slightly limited, percent of patients: (33.79%)
  SAQ Question 1-5: Mildly limited, number of patients: 311
  SAQ Question 1-5: Mildly limited, percent of patients: (17.84%)
  SAQ Question 1-5: Moderately limited, number of patients: 162
  SAQ Question 1-5: Moderately limited, percent of patients: (9.29%)
  SAQ Question 1-5: Not limited, number of patients: 709
  SAQ Question 1-5: Not limited, percent of patients: (40.68%)
  SAQ Question 1-5: Other reasons, number of patients: 12
  SAQ Question 1-5: Other reasons, percent of patients: (0.69%)
  SAQ Question 1-5: Severely limited, number of patients: 21
  SAQ Question 1-5: Severely limited, percent of patients: (1.20%)
  SAQ Question 1-5: Slightly limited, number of patients: 528
  SAQ Question 1-5: Slightly limited, percent of patients: (30.29%)
  SAQ Question 1-9: Mildly limited, % of cases: (18.63%)
  SAQ Question 1-9: Mildly limited, cases: 318
  SAQ Question 1-9: Moderately limited, % of cases: (20.04%)
  SAQ Question 1-9: Moderately limited, cases: 342
  SAQ Question 1-9: Not limited, % of cases: (3.57%)
  SAQ Question 1-9: Not limited, cases: 61
  SAQ Question 1-9: Other reaons, % of cases: (5.98%)
  SAQ Question 1-9: Other reaons, cases: 102
  SAQ Question 1-9: Severely limited, % of cases: (38.90%)
  SAQ Question 1-9: Severely limited, cases: 664
  SAQ Question 1-9: Slightly limited, % of cases: (12.89%)
  SAQ Question 1-9: Slightly limited, cases: 220
PP
  SAQ 2nd question: Clearly increased, % of cases: (0.41%)
  SAQ 2nd question: Clearly increased, cases: 6
  SAQ 2nd question: Clearly reduced, % of cases: (22.01%)
  SAQ 2nd question: Clearly reduced, cases: 322
  SAQ 2nd question: Same, % of cases: (41.97%)
  SAQ 2nd question: Same, cases: 614
  SAQ 2nd question: Slightly increased, % of cases: (3.42%)
  SAQ 2nd question: Slightly increased, cases: 50
  SAQ 2nd question: Slightly reduced, % of cases: (32.19%)
  SAQ 2nd question: Slightly reduced, cases: 471
  SAQ 3rd question: 1-2 times per week, % of cases: (32.19%)
  SAQ 3rd question: 1-2 times per week, cases: 471
  SAQ 3rd question: 1-3 times per day, % of cases: (3.42%)
  SAQ 3rd question: 1-3 times per day, cases: 50
  SAQ 3rd question: <1 time per week, % of cases: (22.01%)
  SAQ 3rd question: <1 time per week, cases: 322
  SAQ 3rd question: No onset, % of cases: (0.00%)
  SAQ 3rd question: No onset, cases: 0
  SAQ 3rd question: ≧3 times per week, % of cases: (41.97%)
  SAQ 3rd question: ≧3 times per week, cases: 614
  SAQ 3rd question: ≧4 times per day, % of cases: (0.41%)
